According to ChEMBL document CHEMBL1123608, “In vivo antitumor activity of 6-benzyl-1,3-benzodioxole derivatives against the P388, L1210, B16, and M5076 murine models” (1987):

Columns and labels:
[1] = test system: Mus musculus; test: The percent increase in life span on P388 cells which were inoculated intraperitoneally in CD2F1 mice at 200 mg/kg dose placed at ranking order 2; format: functional; conditions: P388, ip, route intraperitoneal
[2] = test system: Mus musculus; test: The percent increase in life span on P388 cells which were inoculated intraperitoneally in CD2F1 mice at 400 mg/kg (tested in the same control) dose placed at ranking order 1; format: functional; conditions: P388, ip, route intraperitoneal
[3] = test system: Mus musculus; test: The percent increase in life span on P388 cells which were inoculated intraperitoneally in CD2F1 mice at 400 mg/kg dose placed at ranking order 3; format: functional; conditions: P388, ip, route intraperitoneal
[4] = test system: Mus musculus; test: The percent increase in life span on P388 cells which were inoculated intraperitoneally in CD2F1 mice at 400 mg/kg dose placed at ranking order 4; format: functional; conditions: P388, ip, route intraperitoneal
[5] = test system: Mus musculus; test: Percent increase in life span (ILS) was measured on P388 cells which were inoculated intraperitoneally in CD2F1 mice; format: functional
[6] = Ability to inhibit the dibutyryl-cAMP-induced change of an immature glioma cell to a mature, differentiated astrocyte by in vitro astrocytoma assay at 100 ug/mL dose (Experiment #1) value may range from 51 to 70; format: functional, Mus musculus
[7] = Ability to inhibit the dibutyryl-cAMP-induced change of an immature glioma cell to a mature, differentiated astrocyte by in vitro astrocytoma assay at 100 ug/mL dose (Experiment #2) value may range from 31 to 50; format: functional, Mus musculus
[8] = Ability to inhibit the dibutyryl-cAMP-induced change of an immature glioma cell to a mature, differentiated astrocyte by in vitro astrocytoma assay at 10 ug/mL dose (Experiment #1) value may range from 6 to 15; format: functional, Mus musculus
[9] = Ability to inhibit the dibutyryl-cAMP-induced change of an immature glioma cell to a mature, differentiated astrocyte by in vitro astrocytoma assay at 10 ug/mL dose (Experiment #2) value may range from 31 to 50; format: functional, Mus musculus
[10] = Ability to inhibit the dibutyryl-cAMP-induced change of an immature glioma cell to a mature, differentiated astrocyte by in vitro astrocytoma assay at 1 ug/mL dose (Experiment #1) value may range from 0 to 5; format: functional, Mus musculus
[11] = Ability to inhibit the dibutyryl-cAMP-induced change of an immature glioma cell to a mature, differentiated astrocyte by in vitro astrocytoma assay at 1 ug/mL dose (Experiment #2) value may range from 0 to 5; format: functional, Mus musculus
[12] = test system: Mus musculus; test: The percent increase in life span on P388 cells which were inoculated intraperitoneally in CD2F1 mice at 200 mg/kg dose placed at ranking order 1; format: functional; conditions: P388, ip, route intraperitoneal
[13] = test system: Mus musculus; test: The percent increase in life span on P388 cells which were inoculated intraperitoneally in CD2F1 mice at 200 mg/kg dose placed at ranking order 3; format: functional; conditions: P388, ip, route intraperitoneal
[14] = test system: Mus musculus; test: The percent increase in life span on P388 cells which were inoculated intraperitoneally in CD2F1 mice at 400 mg/kg (tested in the same control) dose placed at ranking order 4; format: functional; conditions: P388, ip, route intraperitoneal
[15] = test system: Mus musculus; test: In vivo antitumor activity against the B16 melanoma cell line expressed as percent increase in life span at 100 mg/kg dose; format: functional
[16] = test system: Mus musculus; test: In vivo antitumor activity against the B16 melanoma cell line expressed as percent increase in life span at 200 mg/kg dose; format: functional
[17] = test system: Mus musculus; test: In vivo antitumor activity against the L1210 leukemia cell line expressed as percent increase in life span at 200 mg/kg dose; format: functional; conditions: Mus musculus, L1210, dose 200 mg/kg
[18] = test system: Mus musculus; test: In vivo antitumor activity against the L1210 leukemia cell line expressed as percent increase in life span at 400 mg/kg dose; format: functional
[19] = test system: Mus musculus; test: In vivo antitumor activity against the M5076 reticulum cell sarcoma expressed as percent increase in life span at 400 mg/kg dose; format: functional
[20] = test system: Mus musculus; test: The percent increase in life span on P388 cells which were inoculated intraperitoneally in CD2F1 mice at 800 mg/kg dose placed at ranking order 2; format: functional; conditions: P388, ip, route intraperitoneal
[21] = test system: Mus musculus; test: In vivo antitumor activity against the M5076 reticulum cell sarcoma expressed as percent increase in life span at 800 mg/kg doseEach represents a pair of experiments performed with the same control group; format: functional

CCCOc1cc2c(cc1C(C)c1ccc(OC)cc1)OCO2 (configuration not stated)
ILS at 200 mg/kg [1]: 21%
ILS at 400 mg/kg [2]: 30%
ILS at 400 mg/kg [3]: 14%
ILS at 400 mg/kg [4]: 12%
ILS [5]: 30%

C=CCOc1cc2c(cc1C(C)c1ccc(OC)cc1)OCO2 (configuration not stated)
Astrocyte reversal [6]: 70%
Astrocyte reversal [7]: 50%
Astrocyte reversal [8]: 15%
Astrocyte reversal [9]: 50%
Astrocyte reversal [10]: 5%
Astrocyte reversal [11]: 5%
ILS at 200 mg/kg [12]: 88%
ILS at 200 mg/kg [13]: 41%
ILS at 400 mg/kg [14]: 39%
ILS at 100 mg/kg [15]: 27%
ILS at 200 mg/kg [16]: 55%
ILS at 200 mg/kg [17]: 43%
ILS at 400 mg/kg [18]: 39%
ILS at 400 mg/kg [19]: 33%
ILS at 800 mg/kg [20]: 84%
ILS at 800 mg/kg [21]: 58%
ILS [5]: 88%
